Data as given in patent US20070110885A1, “Method for controlling retention of an organic compound or of a plurality of organic compounds inside a liquid or solid phase and applications of said method, in particular in the agri-food domain” (priority 2002, published 2007).

Experiments:
Format in all cases: physicochemical
[1] = Static headspace measurement of aroma release from a liquid phase to the vapour phase versus redox potential modified by gas bubbling; settings: for effect of redox on aroma release/retention (headspace): FIG. 3, 4, 5; for change of mass sharing coefficient Ki when the redox potential of the first liquid phase is lowered: liquid phase/gas phase
Text: The study of the checking of the mass sharing coefficient Ki of an organic compound (i) between two phases, respectively a first liquid phase and a second vapour phase, as a function of the redox potential value includes the quantification of the organic compound (i) in the vapour phase at equilibrium, by the static headspace technique. In the examples, the method of the invention is illustrated with aroma-type organic compounds (i).
The static headspace technique consists in analyzing the vapours in equilibrium above a solution placed in a confined atmosphere at a given temperature. The vapour analysis in gas chromatography (CPG) gives the volatile compound concentration of the “head space”.
The aroma solutions are prepared in a solution of 50 mM NaCl, the pH of which has been adjusted to pH 3 with HCl (1N) or at pH 7.5 with NaOH (1N).
Furthermore, tests have also been realized in the presence of a lactoserum protein, the β-lactoglobuline, dispersed (3%) in a solution of 50 mM NaCl at pH 3 or pH 7.5, or in whole or skimmed milk.
The redox is modified by bubbling a gas (hydrogen, nitrogen, helium, or oxygen) at a flowrate of 20 mL.min^−1 for a previously determined time (8 min). The redox measurement is realized after the gas bubbling step with a redox measurement electrode connected to a pH meter-voltameter. The thus prepared solutions are distributed on the basis of 10 mL in brown flasks of 40 mL (Supelco, France) closed by Mininert valve plugs (Supelco). […]
A control is realized in the presence of air: the bubbling step is not realized, only the pressurization occurs, in the same conditions as the other gasses.
The flasks are then equilibrated in a water bath at 30° C. for 1 hr 30. At least 3 brown flasks are prepared for each gas, a flask serving only for one injection.
At the equilibrium, 1 mL of vapour phase is taken with a 1 mL gas syringe (SGE), then injected in a gas chromatograph (CPG) provided with a DB-WAX column (J&W Scientific, diameter 0.32 mm, length 30 m, phase thickness 0.5 μm) and a flame ionization detector. The injector and detector temperatures are respectively 250° C. and 260° C. The vector gas velocity (hydrogen) at 143° C. is of 37 cm.sec-^1. The signal acquisition is achieved with a chromatogram acquisition and treatment software developed in the laboratory.
Thus, the amount of aroma present in the vapour phase is determined for each gas.

[2] = Evaluation of the aroma losses during gas bubbling (Tenax entrapment and pentane extraction); settings: 50 ppm in NaCl 50 mM pH 7.5
Protocol: 4. Evaluation of the Losses During the Bubbling
The aroma losses upon bubbling have been evaluated by entrapment on an absorbing polymer (Tenax) of the gas effluent at the flask outlet and by extraction of the liquid phase with pentane. The same is done for all the gasses being used.
The loss test is made on a 50 mL of a 2-nonanone solution (50 ppm) in NaCl (50 mM, pH 7.5).
The gas is simultaneously bubbled (8 min) at the same flowrate of 20 mL.min^−1 in the flask, then the gas effluent is entrapped on Tenax at the flask outlet. This Tenax trap is afterwards desorbed on a TCT Chrompak apparatus coupled with a HP chromatograph provided with a FID detector.
The amount of aroma entrapped on Tenax is determined in comparison with an external calibration curve. This calibration curve is obtained as described hereinafter: 1 μl of 2-nonanone solution is deposited in pentane in the glass cotton of the Tenax tube upper part, then the Tenax tube is desorbed in the same conditions as for the analysis. Different concentrations have been tested.
The amount of aroma remaining in the liquid phase is determined by extraction of the aroma solution (5 mL) by pentane (5 mL). One μl of the organic phase is injected in split/splitless in CPG. A comparison is made with an external calibration, obtained by injection of 1 μl of 2-nonanone solution in pentane.

[3] = Retention of aroma between aqueous phase (water) and organic liquid phase (dichloromethane) versus redox; settings: water/dichloromethane mixture; FIG. 9
Text: FIG. 9 illustrates the results of a measurement of the retention degree of 2-nonanone between an aqueous phase (water) and an organic liquid phase (dichloromethane) with non pressurized flasks (diamonds) or pressurized flasks with hydrogen (squares).
The experiment of Example 2 is realized, but in a mixture of water (aqueous phase)/dichloromethane (CH2Cl2, organic phase).

[4] = Static headspace measurement with redox modified by addition of molecules (DTT, potassium ferricyanide)
Protocol: 1. Preparation of the Reducing Medium
The reducing medium is obtained by addition of DTT(1,4-dithiothreitol). The ultrapure water employed for the solution preparation is degassed with a high gas flowrate during 1 h. La 2-nonanone solution (50 ppm) is prepared through addition of such aroma into the degassed water; the solution volume has been chosen so that a minimum of air exists between the plug and the solution. The thus prepared solution is stirred for homogenisation for 30 min.
An aliquot of this solution is added with DTT (10 g.l^−1) and then this solution is stirred for 30 min.
In order to prevent the dilution phenomenon, another protocol has been used: the degassed water is added with DTT (10 g.l^−1), then the aroma is added.
The thus prepared solutions are distributed at a level of 10 mL in 40 mL brown flasks (Supelco, France) closed by Mininert valves (Supelco). The flasks are pressurized with nitrogen for 1 min with a flowrate of 260 mL.min^−1. The overpressure is then evacuated. The flasks are then equilibrated during 1 h 30 in a water bath at 30° C. For each one of the conditions, 4 repetitions are realized.
2. Preparation of the Oxidizing Medium
The oxidizing medium is obtained by addition of potassium ferricyanide.
Two aroma solutions are prepared: for solution 1, the 2-nonanone is solubilized in water and then the solution is stirred for 30 min; for solution 2, the potassium ferricyanide is dissolved in water, then the 2-nonanone is added. This solution is afterwards stirred during 30 min.
The thus prepared solutions are distributed at a level of 10 mL in 40 mL brown flasks (Supelco, France) closed by Mininert valves (Supelco).
The flasks are then equilibrated during 1 h 30 in a water bath at 30° C. For each one of the conditions, 4 repetitions are realized.

Question: Which results are given for `CC(=O)C(C)=O` [diacetyl]?
Answer: effect of redox on aroma release/retention (headspace) ([1]; conditions of Examples 2, 3, 4): +20%; change of mass sharing coefficient Ki when the redox potential of the first liquid phase is lowered [1]: increase of the mass sharing coefficient Ki

Question: What does the source list for `C=CCN=C=S` [AITC, allyl isothiocyanate]?
Answer: effect of redox on aroma release/retention (headspace) ([1]; conditions of Examples 2, 3, 4): −30%; change of mass sharing coefficient Ki when the redox potential of the first liquid phase is lowered [1]: growth of the mass sharing coefficient Ki value

Question: Which results are given for `CCCCCCCC(C)=O` [2-nonanone]?
Answer: aroma losses during bubbling ([2]; helium): 0.5%; aroma losses during bubbling ([2]; hydrogen): 0.3%; aroma losses during bubbling ([2]; nitrogen): 2%; aroma losses during bubbling ([2]; oxygen): 2.3%; aroma losses during bubbling ([2]; regardless of the gas employed, bubbling 8 min at 20 mL/min): < 3%; effect of a positive redox potential value on release ([1]; aqueous liquid phase contacted with 100% oxygen or air (21% oxygen), same with 100% nitrogen): favours the release or the transfer; retention within the liquid phase with helium gas ([1]; aqueous solution pH 7.5, helium, redox +400 mV): no significant difference; modification of the medium aroma release at low redox (headspace) ([1]; aqueous solution pH 7.5, hydrogen -320 mV versus nitrogen/oxygen about +500 mV, FIG. 1): ~−30%; effect when the atmosphere is neutral or oxidizing and the redox increases ([1]; aqueous solution pH 7.5, hydrogen, non pressurized flask, FIG. 8): effect inverses; effect at low redox under reducing atmosphere ([1]; aqueous solution pH 7.5, hydrogen, pressurized flask, FIG. 8): retention effect; difference of retention depending on the redox ([1]; aqueous solution with beta-lactoglobuline at 3%, pH 7.5 and acid medium, FIG. 2): does not show any difference of retention depending on the redox; modification of the aroma release at low redox (headspace) ([1]; aqueous solution, acid medium, FIG. 1): −20%; effect of a negative level of redox potential on retention ([1]; liquid phase contacted with gas containing 100% hydrogen): favours the 2-nonanone retention in the liquid phase; change of mass sharing coefficient Ki when the redox potential of the first liquid phase is lowered [1]: growth of the mass sharing coefficient Ki value; change of mass sharing coefficient Ki at low redox potential ([1]; skimmed milk, pH 4.6): reduction of the mass sharing coefficient value Ki; effect at high redox ([1]; skimmed milk, FIG. 7): no effect; retention effect at low redox ([1]; skimmed milk, FIG. 7): −20%; redox effect on the aroma release ([1]; whole milk, FIG. 7): do not show any redox effect; retention in the aqueous phase at low redox [3]: better retained in the aqueous phase; effect of reducing the redox potential by a reducing compound ([4]; aqueous liquid phase, dithiothreitol (DTT) added): favours the 2-nonanone retention in the liquid phase; effect of increasing the redox potential by an oxidizing compound ([4]; aqueous liquid phase, potassium ferricyanide added): favours the 2-nonanone release or transfer towards the second gas phase; release in the vapour phase in a reducing medium versus oxidizing medium ([4]; water, 50 ppm, DTT 10 g/l versus potassium ferricyanide, FIG. 10): less 2-nonanone released in the vapour phase than in the oxidizing medium

Question: Which results are given for `CCCCCC(=O)OCC` [ethyl hexanoate]?
Answer: effect of redox on aroma release/retention (headspace), in words ([1]; conditions of Examples 2, 3, 4, FIG. 5): no effect; change of mass sharing coefficient Ki when the redox potential of the first liquid phase is lowered [1]: lack of significant modification
